According to patent US7195918B2 (priority 2003, dated 2007):

Tests used:
[1] = system: A. succinogenes 130Z; assay: Antibiotic minimum inhibitory concentrations: growth of A. succinogenes 130Z in liquid medium A with antibiotics; format: cell-based, Actinobacillus succinogenes; conditions: 37° C.; for antibiotic concentration in whose presence A. succinogenes 130Z grew perfectly well / antibiotic concentration in whose presence no growth was detected / antibiotic concentration in whose presence very slow growth was observed: 7 days, OD660; for OD660 after 7 days culture: 5 μg/ml antibiotic
Procedure: Antibiotic minimum inhibitory concentrations. To determine the sensitivity of A. succinogenes 130Z to antibiotics, the growth of A. succinogenes 130Z was tested in medium A (liquid medium) containing a series of antibiotics commonly used in bacteriology. One ml of 130Z preculture was inoculated into 9 ml of medium A containing each antibiotic and incubated at 37° C. for 7 days. Cell growth was followed by measuring OD660.
Resistance of A. succinogenes to antibiotics. A. succinogenes 130Z grew perfectly well in the presence of 50 μg/ml kanamycin or 30 μg/ml streptomycin. […] No growth was detected in the presence of 10 μg/ml ampicillin, 1 μg/ml chloramphenicol, 5 μg/ml tetracycline, or 10 μg/ml erythromycin. A. succinogenes is sensitive to low concentrations of ampicillin, chloramphenicol, erythromycin, and tetracycline, so the corresponding resistance genes (i.e., Amp^R, Cm^R, Tet^R, and Ery^R) could be used as selection markers on plasmids used to transform A. succinogenes. We discovered that the Tn3 Amp^R gene carried by pGZRS-19 is naturally expressed in A. succinogenes.

[2] = system: A. succinogenes 130Z cells harboring pLGZ921 and pLGZ922; assay: Growth of plasmid-harboring A. succinogenes 130Z on TS-agar plates with tetracycline or chloramphenicol; format: cell-based, Actinobacillus succinogenes
Text: Expression of Tet^R and Cm^R in A. succinogenes. We need several markers to conveniently engineer A. succinogenes. One can be used to label a gene deletion, while another one can be used to select for the maintenance of a recombinant gene on a plasmid replicon. To determine whether, once expressed, Cm^R and Tet^R could be used as selective markers in A. succinogenes, the Tn9 Cm^R and Tn10 Tet^R genes were cloned into pLGZ920 under control of the A. succinogenes pckA promoter, yielding plasmids pLGZ921 and pLGZ922, respectively. After electroporation, A. succinogenes 130Z cells harboring pLGZ921 and pLGZ922 were spread on TS-agar (30 g/l TS, 10 g/l glucose) plates containing variable amounts of tetracycline and chloramphenicol (FIG. 9). Strains […] plated on chloramphenicol plates and […] plated on tetracycline plates were used as the negative controls. […] In contrast, strain […] grew on plates containing up to 5.0 μg/ml tetracycline. Chloramphenicol-sensitive 130Z(pLGZ921) strain grew on plates containing up to 0.4 μg/ml […], but not on plates containing higher chloramphenicol concentrations. Strain […] grew on plates containing up to 5.0 μg/ml chloramphenicol.

| SMILES | antibiotic concentration in whose presence A. succinogenes 130Z grew perfectly well [1] | antibiotic concentration up to which strain 130Z(pLGZ922) grew on plates [2] | antibiotic concentration in whose presence no growth was detected [1] | OD660 after 7 days culture [1] | antibiotic concentration in whose presence very slow growth was observed [1] |
| --- | --- | --- | --- | --- | --- |
| NC[C@H]1O[C@H](O[C@H]2[C@H](O)[C@@H](O[C@H]3O[C@H](CO)[C@@H](O)[C@H](N)[C@H]3O)[C@H](N)C[C@@H]2N)[C@H](O)[C@@H](O)[C@@H]1O [kanamycin] | 50 µg/mL | – | – | – | – |
| CN(C)[C@@H]1C(O)=C(C(N)=O)C(=O)[C@@]2(O)C(O)=C3C(=O)c4c(O)cccc4[C@@](C)(O)[C@H]3C[C@@H]12 [tetracycline] | – | up to 1.0 μg/ml | 5 µg/mL | – | – |
| [H]/N=C(/N)N[C@H]1[C@H](O)[C@@H](O)[C@H](O[C@@H]2O[C@@H](C)[C@](O)(C=O)[C@H]2O[C@@H]2O[C@@H](CO)[C@H](O)[C@@H](O)[C@@H]2NC)[C@@H](N/C(N)=N\[H])[C@@H]1O [streptomycin] | 30 µg/mL | – | – | – | – |
| O=C(N[C@H](CO)[C@H](O)c1ccc([N+](=O)[O-])cc1)C(Cl)Cl [chloramphenicol] | – | – | 1 µg/mL | – | – |
| CC1(C)S[C@@H]2[C@H](NC(=O)[C@H](N)c3ccccc3)C(=O)N2[C@H]1C(=O)O [ampicillin] | – | – | 10 µg/mL | approximately 0.05 | 5 µg/mL |
| CC[C@H]1OC(=O)[C@H](C)[C@@H](O[C@H]2C[C@@](C)(OC)[C@@H](O)[C@H](C)O2)[C@H](C)[C@@H](O[C@@H]2O[C@H](C)C[C@H](N(C)C)[C@H]2O)[C@](C)(O)C[C@@H](C)C(=O)[C@H](C)[C@@H](O)[C@]1(C)O [erythromycin] | – | – | 10 µg/mL | approximately 0.05 | 5 µg/mL |
